{
  "source": "patent US8211445B2",
  "about": "“PSM peptides as vaccine targets against methicillin-resistant Staphylococcus” (The United States of America, as represented by the …, priority 2007, dated 2012)",
  "test_system": "human neutrophils",
  "test": "Neutrophil chemotaxis (transwell)",
  "format": "cell-based",
  "conditions": "PSM-mec vs PSMα3; range similar to other α-type PSMs, in general higher than β-type PSMs (FIG. 21A)",
  "procedure": "Neutrophils were subjected to a brief hypotonic shock with pyrogen-free water (Sigma), washed, and suspended at 5×10^6 cells/ml in HBSS containing 0.05% human serum albumin (HSA; CLB). Chemotaxis of neutrophils was determined by using fluorescently-labeled neutrophils that migrated through a membrane fitted into an insert of a 24-well microtiter plate transwell system (Costar) containing a prewetted 3-μm-pore-size polycarbonate filter as described (de Haas et al., J Exp Med 199, 687-95, 2004). For measurement of calcium ion fluxes, 5×10^6 neutrophils/ml were loaded with 2 μM Fluo-3-AM (Molecular Probes) in RPMI containing 0.05% HSA (RPMI-HSA) for 20 minutes at room temperature under agitation, washed twice with buffer, and resuspended in RPMI-HSA at 10^6 cells/ml. Calcium fluxes were analyzed with a FACScalibur (Becton Dickinson).\nNeutrophils were subjected to a brief hypotonic shock with pyrogen-free water (Sigma), washed, and suspended at 5×10^6 cells/ml in HBSS containing 0.05% human serum albumin (HAS; CLB). Chemotaxis of neutrophils was determined by using fluorescently-labeled neutrophils that migrated through a membrane fitted into an insert of a 24-well microtiter plate transwell system (Costar) containing a prewetted 3-μm-pore-size polycarbonate filter. […] Calcium fluxes were analyzed with a FACScalibur (Becton Dickinson). […]",
  "data": [
    {"substance": "fMEFVAKLFKFFKDLLGKFLGNN [PSMα3]", "values": [
      {"measurement": "chemotactic activities", "result": "most potent"}
    ]}
  ]
}
